We go through one compound from patent publication US11517541B2, “Applications of spermidine and its derivatives” (GENEHEAL BIOTECHNOLOGY CO., LTD., priority 2017, dated 2022).

pIC50: −log10 of the molar value.

The target in assay [1] is T1, PAICS (Homo sapiens, UniProt P22234).
T1 sequence (P22234 1-425): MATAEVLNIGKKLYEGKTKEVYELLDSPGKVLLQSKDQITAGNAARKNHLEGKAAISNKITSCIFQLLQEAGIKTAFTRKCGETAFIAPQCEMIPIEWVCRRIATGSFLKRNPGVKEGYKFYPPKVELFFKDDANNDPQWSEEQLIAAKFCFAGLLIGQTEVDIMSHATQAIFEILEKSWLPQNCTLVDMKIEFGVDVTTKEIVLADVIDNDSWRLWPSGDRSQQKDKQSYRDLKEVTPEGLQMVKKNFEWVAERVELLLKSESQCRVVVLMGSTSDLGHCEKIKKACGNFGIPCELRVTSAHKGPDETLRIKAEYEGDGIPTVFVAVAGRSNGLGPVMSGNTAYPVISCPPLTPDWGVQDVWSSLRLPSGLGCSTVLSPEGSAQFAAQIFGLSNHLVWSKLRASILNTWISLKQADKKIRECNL
As to the kind of experiment: Inhibition of spermidine on PAICS activity (SAICAR accumulation). The following applies: biochemical enzyme activity experiments and cell biology experiments. The text has this: The accumulation of toxic compound SAICAR is reduced by inhibiting the activity of PAICS.

The subject of assay [2] is lung cancer cell strain PC9. As to the kind of experiment: Cancer cell growth inhibition / cell viability. The following applies: after 48 hours of drug administration. The format is cell-based.
The test system of assay [3] is oncogene myc. The experiment in a line: Inhibition of oncogene MYC expression (Western Blot). Type of assay: cell-based. The conditions noted are these: FIG. 4. For orientation: Immunoblotting shows a protein as a band on a membrane.
The subject of assay [4] is lung cancer cell strain A549. As to the kind of experiment: Cancer cell growth inhibition / cell viability. The conditions noted are these: Homo sapiens, after 48 hours of drug administration. Type of assay: cell-based.
Assay [5] concerns lung cancer cell strain H1299. As to the kind of experiment: Cancer cell growth inhibition / cell viability. The following applies: Homo sapiens, NCI-H1299, after 48 hours of drug administration. The format is cell-based.
The test system of assay [6] is breast cancer cell strain MD231. As to the kind of experiment: Cancer cell growth inhibition / cell viability. The format is cell-based. The conditions noted are these: after 48 hours of drug administration.
For assay [7], the system named is breast cancer cell strain MD468. The experiment in a line: Cancer cell growth inhibition / cell viability. Type of assay: cell-based. The following applies: after 48 hours of drug administration.

By pIC50 is commonly meant the IC50 on a negative log10 scale, so that one unit is a factor of ten. A high value points to a small IC50. With `NCCCCNCCCN` [spermidine], the “inhibition of the accumulation of SAICAR” value in assay [1] is reported as “up to 68.98%”. Moreover, the pIC50 in assay [2] was 4.63; in assay [4] it was 4.28; in assay [5] it was 4.68; in assay [6], 5.85; in assay [7], 4.34. For the same compound, in assay [3], the “expression of oncogene myc” value is given as “significantly down-regulated”.
